Values quoted from earlier work as cited in patent US20180207149A1, “METHODS AND COMPOSITIONS FOR ENHANCING IMMUNE RESPONSE TO VACCINATION” (priority 2015, published 2018).

Test system: immunizing influenza vaccine strains
Settings: elderly subjects with chronic illness; topical, before intradermal trivalent influenza vaccine

CC(C)Cn1cnc2c(N)nc3ccccc3c21 [imiquimod]
immunogenicity against the immunizing influenza vaccine strains: expedited, augmented and prolonged the immunogenicity
